Experimental findings from ChEMBL document CHEMBL1140446, “Designed multiple ligands. An emerging drug discovery paradigm” (J Med Chem, 2005) are described below.

Assay [1] concerns the target Histamine H3 receptor (Homo sapiens, UniProt Q9Y5N1). In words: Inhibition constant against histamine H3 receptor.
In assay [2] the target is Histamine H1 receptor (Homo sapiens, UniProt P35367).
Description: Inhibition constant against histamine H1 receptor
Assay [3] has as its target Endothelin-converting enzyme 1 (Homo sapiens, UniProt P42892). In words: Inhibition constant against endothelin converting enzyme 1.
For assay [4], the target named is Neprilysin (Homo sapiens, UniProt P08473). In words: Inhibition constant against neutral endopeptidase.
Assay [5] concerns the target Angiotensin-converting enzyme (Homo sapiens, UniProt P12821). In words: Inhibition constant against angiotensin I converting enzyme.
Assay [6] addresses T1, Endothelin-1 receptor (Homo sapiens, UniProt P25101).
T1 sequence (P25101 whole entry): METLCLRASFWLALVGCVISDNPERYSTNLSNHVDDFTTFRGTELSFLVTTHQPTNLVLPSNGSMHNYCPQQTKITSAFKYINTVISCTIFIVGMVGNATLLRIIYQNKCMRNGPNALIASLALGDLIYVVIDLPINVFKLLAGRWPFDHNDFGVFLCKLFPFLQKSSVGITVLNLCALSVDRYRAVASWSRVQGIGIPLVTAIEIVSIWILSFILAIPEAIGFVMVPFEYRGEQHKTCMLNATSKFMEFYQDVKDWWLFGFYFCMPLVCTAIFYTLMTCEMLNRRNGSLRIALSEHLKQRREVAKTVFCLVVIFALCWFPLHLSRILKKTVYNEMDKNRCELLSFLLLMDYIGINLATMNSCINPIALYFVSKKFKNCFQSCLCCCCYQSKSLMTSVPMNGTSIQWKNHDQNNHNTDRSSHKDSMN
The assay is described as follows: Inhibitory concentration against endothelin receptor type A.

The target in assay [7] is T2, Type-1 angiotensin II receptor (Homo sapiens, UniProt P30556).
T2 sequence (P30556 whole entry): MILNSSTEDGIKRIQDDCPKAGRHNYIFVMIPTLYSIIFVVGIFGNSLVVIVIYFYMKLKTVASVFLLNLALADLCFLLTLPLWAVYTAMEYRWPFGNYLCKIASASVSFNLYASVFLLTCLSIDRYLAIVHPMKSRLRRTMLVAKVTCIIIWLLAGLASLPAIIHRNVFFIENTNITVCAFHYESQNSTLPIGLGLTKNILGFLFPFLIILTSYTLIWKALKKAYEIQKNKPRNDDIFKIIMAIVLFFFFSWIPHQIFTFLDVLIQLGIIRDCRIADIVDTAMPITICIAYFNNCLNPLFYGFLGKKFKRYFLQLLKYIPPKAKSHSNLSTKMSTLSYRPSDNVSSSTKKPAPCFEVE
Description: Inhibitory concentration against angiotensin II receptor, type 1

Assay [8] concerns the target Endothelin receptor type B (Homo sapiens, UniProt P24530).
Description: Inhibitory concentration against endothelin receptor type B
The target of assay [9] is T3, Type-2 angiotensin II receptor (Homo sapiens, UniProt P50052).
T3 sequence (P50052 whole entry): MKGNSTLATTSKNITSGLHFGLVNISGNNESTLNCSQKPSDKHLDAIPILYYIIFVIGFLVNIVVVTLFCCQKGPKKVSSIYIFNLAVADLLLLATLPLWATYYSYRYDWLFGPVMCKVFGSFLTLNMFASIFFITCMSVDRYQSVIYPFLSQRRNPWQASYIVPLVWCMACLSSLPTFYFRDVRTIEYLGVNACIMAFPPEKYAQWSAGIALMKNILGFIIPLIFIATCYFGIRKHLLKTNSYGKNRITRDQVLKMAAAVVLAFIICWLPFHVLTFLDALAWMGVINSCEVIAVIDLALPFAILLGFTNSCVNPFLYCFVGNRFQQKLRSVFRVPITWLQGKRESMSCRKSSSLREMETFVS
Description: Inhibitory concentration against angiotensin II receptor, type 2

Chain of Histamine H3 receptor (Q9Y5N1 whole entry): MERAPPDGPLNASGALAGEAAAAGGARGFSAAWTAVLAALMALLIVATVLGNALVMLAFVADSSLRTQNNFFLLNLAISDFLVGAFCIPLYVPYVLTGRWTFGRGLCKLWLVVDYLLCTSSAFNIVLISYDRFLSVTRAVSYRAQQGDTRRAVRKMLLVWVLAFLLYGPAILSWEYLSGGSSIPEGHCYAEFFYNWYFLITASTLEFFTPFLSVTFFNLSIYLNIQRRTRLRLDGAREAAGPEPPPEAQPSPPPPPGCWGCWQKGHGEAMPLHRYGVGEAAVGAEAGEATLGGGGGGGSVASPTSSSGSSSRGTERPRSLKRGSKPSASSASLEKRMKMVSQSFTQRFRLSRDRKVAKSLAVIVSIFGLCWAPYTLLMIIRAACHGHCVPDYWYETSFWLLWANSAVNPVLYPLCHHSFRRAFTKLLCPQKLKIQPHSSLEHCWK
Chain of Histamine H1 receptor (P35367 whole entry): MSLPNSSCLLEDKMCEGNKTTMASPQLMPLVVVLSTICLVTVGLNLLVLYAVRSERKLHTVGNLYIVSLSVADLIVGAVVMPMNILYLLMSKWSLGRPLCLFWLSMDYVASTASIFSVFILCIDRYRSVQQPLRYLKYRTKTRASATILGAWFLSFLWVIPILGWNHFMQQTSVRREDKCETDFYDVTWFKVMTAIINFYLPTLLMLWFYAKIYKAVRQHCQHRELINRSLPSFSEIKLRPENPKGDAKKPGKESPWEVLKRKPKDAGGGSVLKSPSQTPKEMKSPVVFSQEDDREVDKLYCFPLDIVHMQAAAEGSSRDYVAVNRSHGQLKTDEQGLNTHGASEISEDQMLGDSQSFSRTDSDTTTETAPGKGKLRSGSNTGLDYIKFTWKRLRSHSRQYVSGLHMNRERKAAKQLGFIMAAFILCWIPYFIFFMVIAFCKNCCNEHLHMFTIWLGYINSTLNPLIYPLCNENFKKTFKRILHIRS
Chain of Angiotensin-converting enzyme (P12821 whole entry): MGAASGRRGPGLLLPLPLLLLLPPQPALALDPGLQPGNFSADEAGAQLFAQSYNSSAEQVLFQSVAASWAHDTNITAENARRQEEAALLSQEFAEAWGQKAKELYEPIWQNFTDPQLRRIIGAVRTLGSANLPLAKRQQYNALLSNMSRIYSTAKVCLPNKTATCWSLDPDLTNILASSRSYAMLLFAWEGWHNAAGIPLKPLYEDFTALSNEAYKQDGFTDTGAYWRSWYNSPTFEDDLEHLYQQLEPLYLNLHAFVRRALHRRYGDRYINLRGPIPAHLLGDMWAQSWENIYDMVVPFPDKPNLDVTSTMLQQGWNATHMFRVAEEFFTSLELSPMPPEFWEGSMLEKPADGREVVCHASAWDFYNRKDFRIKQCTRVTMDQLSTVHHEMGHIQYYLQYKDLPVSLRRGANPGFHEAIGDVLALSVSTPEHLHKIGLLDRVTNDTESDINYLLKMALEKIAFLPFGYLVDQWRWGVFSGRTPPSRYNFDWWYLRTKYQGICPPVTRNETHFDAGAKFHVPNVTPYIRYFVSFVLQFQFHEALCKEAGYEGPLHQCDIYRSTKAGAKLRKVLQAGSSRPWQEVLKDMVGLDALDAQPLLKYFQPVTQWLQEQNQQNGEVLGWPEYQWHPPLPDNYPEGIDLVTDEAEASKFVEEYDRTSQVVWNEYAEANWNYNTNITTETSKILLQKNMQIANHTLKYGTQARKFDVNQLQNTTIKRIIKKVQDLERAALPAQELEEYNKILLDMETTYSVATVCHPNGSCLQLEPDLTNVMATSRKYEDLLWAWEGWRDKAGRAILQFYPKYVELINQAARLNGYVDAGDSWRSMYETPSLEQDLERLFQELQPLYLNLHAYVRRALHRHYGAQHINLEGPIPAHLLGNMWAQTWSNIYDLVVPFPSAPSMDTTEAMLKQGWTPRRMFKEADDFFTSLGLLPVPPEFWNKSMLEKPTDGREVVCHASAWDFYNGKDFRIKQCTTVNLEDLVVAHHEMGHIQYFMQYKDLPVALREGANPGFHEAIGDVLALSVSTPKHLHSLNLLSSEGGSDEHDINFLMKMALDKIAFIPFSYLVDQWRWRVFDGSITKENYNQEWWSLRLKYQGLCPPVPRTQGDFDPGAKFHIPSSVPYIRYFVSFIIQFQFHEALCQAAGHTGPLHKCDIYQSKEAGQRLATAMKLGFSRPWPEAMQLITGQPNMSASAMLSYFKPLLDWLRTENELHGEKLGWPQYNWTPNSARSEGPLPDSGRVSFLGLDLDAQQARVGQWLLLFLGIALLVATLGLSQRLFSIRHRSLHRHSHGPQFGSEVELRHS
Chain of Neprilysin (P08473 whole entry): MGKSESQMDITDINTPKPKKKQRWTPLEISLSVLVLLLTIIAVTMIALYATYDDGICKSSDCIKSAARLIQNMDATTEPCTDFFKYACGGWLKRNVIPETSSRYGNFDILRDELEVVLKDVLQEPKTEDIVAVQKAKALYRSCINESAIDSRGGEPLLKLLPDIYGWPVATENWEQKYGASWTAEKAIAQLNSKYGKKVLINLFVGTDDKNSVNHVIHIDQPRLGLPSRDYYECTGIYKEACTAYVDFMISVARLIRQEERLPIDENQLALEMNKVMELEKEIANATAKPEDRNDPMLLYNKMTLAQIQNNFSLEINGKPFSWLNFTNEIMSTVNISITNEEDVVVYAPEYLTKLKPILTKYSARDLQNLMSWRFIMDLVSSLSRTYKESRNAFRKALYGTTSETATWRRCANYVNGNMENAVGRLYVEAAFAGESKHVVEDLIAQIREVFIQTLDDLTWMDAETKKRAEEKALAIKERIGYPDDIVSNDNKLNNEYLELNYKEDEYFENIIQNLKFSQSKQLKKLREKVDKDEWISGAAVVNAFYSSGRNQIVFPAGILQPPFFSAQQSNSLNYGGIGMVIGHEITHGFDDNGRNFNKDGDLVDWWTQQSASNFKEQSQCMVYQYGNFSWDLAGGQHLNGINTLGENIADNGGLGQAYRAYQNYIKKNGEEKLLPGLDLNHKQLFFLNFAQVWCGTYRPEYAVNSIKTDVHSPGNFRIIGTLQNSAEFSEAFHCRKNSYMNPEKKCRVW
Chain of Endothelin-converting enzyme 1 (P42892 whole entry): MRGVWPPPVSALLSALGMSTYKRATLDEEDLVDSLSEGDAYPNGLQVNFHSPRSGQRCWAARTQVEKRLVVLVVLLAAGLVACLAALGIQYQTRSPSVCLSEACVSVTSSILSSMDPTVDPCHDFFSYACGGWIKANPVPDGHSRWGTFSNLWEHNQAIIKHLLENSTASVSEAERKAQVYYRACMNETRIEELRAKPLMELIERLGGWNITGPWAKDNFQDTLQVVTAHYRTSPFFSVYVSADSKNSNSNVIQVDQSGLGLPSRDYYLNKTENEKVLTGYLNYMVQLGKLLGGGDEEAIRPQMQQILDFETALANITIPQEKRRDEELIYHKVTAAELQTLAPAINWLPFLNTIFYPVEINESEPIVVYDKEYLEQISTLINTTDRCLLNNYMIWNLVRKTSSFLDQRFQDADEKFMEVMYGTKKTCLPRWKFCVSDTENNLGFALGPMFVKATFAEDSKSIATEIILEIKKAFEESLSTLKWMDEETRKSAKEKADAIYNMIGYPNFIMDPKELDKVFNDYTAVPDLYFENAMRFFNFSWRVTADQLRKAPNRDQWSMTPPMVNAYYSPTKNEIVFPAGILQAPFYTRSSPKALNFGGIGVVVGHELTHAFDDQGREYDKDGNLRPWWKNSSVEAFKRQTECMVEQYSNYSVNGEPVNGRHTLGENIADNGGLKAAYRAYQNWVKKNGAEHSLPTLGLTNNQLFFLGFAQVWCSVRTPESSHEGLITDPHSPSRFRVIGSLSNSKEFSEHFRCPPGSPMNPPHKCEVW
Chain of Endothelin receptor type B (P24530 whole entry): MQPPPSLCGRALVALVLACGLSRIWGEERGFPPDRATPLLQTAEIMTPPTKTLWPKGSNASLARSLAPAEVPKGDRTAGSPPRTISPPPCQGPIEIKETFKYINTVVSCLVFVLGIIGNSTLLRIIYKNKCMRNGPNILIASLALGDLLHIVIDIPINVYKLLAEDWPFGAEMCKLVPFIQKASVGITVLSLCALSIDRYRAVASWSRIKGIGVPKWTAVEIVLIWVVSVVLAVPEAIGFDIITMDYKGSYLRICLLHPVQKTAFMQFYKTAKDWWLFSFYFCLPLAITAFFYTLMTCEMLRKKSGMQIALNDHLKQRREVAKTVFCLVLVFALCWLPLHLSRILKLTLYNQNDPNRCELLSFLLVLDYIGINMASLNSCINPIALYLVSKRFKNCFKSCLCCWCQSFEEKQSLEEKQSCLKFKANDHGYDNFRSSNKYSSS

Regarding `CN(CCCCc1c[nH]cn1)CCC(c1ccc(Cl)cc1)c1ccccn1` (centres undefined), the Ki in [1] amounted to 15 nM; in assay [2], 7 nM.
Take `COc1ccc2c(c1)CC[C@H]2[C@@H](CS)C(=O)N[C@@H](Cc1c[nH]c2ccccc12)C(=O)O`: the inhibition constant Ki was 10 nM in assay [3], 24 nM in [4] and 1.3 nM in assay [5].
Regarding `CCCc1cc(Cn2c(CC)nc3c(C)cc(C)nc32)ccc1OC(C(=O)NS(=O)(=O)c1ccc(C(C)C)cc1)c1ccc2c(c1)OCC2` (centres undefined), the IC50 in assay [6] came out at 24 nM; in assay [7], 13 nM; in [8] it was 60 nM; in assay [9] it was 32 nM.

One may read the Ki as the equilibrium dissociation constant of an inhibitor or competing ligand from its target. Higher therefore signals lower affinity. Usually IC50 stands for the concentration that inhibits the measured activity by half. The low end stands for greater potency in that assay, the high end for weaker potency in that assay.
